Reference: ChEMBL document CHEMBL1201861, “Genomics of Drug Sensitity in Cancer screening data, Wellcome Trust Sanger Institute”
pIC50: −log10 of the molar value.

Assays:
[1] = test system: RPMI-2650; test: cells; type: functional, cell-based; conditions: Homo sapiens
Description: SANGER: Inhibition of human RPMI-2650 cell growth in a cell viability assay.

[2] = test system: BB65-RCC; test: cells; type: functional, cell-based; conditions: Homo sapiens;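 also: growth inhibition of the cell line, measured with a cell viability assay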
Description: SANGER: Inhibition of human BB65-RCC cell growth in a cell viability assay.

[3] = test system: ES4; test: cells; type: functional, cell-based; conditions: Homo sapiens;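 also: growth inhibition of human ES4 cells, read out by a cell viability assay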
Description: SANGER: Inhibition of human ES4 cell growth in a cell viability assay.

[4] = test system: ALL-PO; test: cells; type: functional, cell-based; conditions: Homo sapiens;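 also: growth inhibition of ALL-PO cells, read out by a cell viability assay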
Description: SANGER: Inhibition of human ALL-PO cell growth in a cell viability assay.

[5] = test system: COLO-320-HSR; test: cells; type: functional, cell-based; conditions: Homo sapiens;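 also: growth inhibition of COLO-320-HSR cells, determined with a cell viability assay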
Description: SANGER: Inhibition of human COLO-320-HSR cell growth in a cell viability assay.

[6] = test system: DoTc2-4510; test: cells; type: functional, cell-based; conditions: Homo sapiens
[7] = test system: NCI-H1395; test: cells; type: functional, cell-based; conditions: Homo sapiens;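 also: cell viability assay read-out quantifying reduced proliferation of human NCI-H1395 cells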
Description: SANGER: Inhibition of human NCI-H1395 cell growth in a cell viability assay.

[8] = test system: NCI-H1581; test: cells; type: functional, cell-based; conditions: Homo sapiens;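 also: cell growth inhibition read out by a viability assay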
Description: SANGER: Inhibition of human NCI-H1581 cell growth in a cell viability assay.

[9] = test system: MOLT-4; test: cells; type: functional, cell-based; conditions: Homo sapiens;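 also: growth inhibition of MOLT-4 cells, determined with a cell viability readout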
Description: SANGER: Inhibition of human MOLT-4 cell growth in a cell viability assay.

[10] = test system: NB13; test: cells; type: functional, cell-based; conditions: Homo sapiens;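 also: cell viability readout measuring growth inhibition of human NB13 cells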
Description: SANGER: Inhibition of human NB13 cell growth in a cell viability assay.

[11] = test system: LB2241-RCC; test: cells; type: functional, cell-based; conditions: Homo sapiens;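 also: cell viability assay measuring how strongly the cultured human renal carcinoma line is prevented from growing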
Description: SANGER: Inhibition of human LB2241-RCC cell growth in a cell viability assay.

[12] = test system: GT3TKB; test: cells; type: functional, cell-based; conditions: Homo sapiens;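 also: growth inhibition of the cell line, read out with a cell viability assay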
Description: SANGER: Inhibition of human GT3TKB cell growth in a cell viability assay.

[13] = test system: VA-ES-BJ; test: cells; type: functional, cell-based; conditions: Homo sapiens;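 also: growth inhibition of the VA-ES-BJ cell line, read out by a cell viability assay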
Description: SANGER: Inhibition of human VA-ES-BJ cell growth in a cell viability assay.

[14] = test system: BV-173; test: cells; type: functional, cell-based; conditions: Homo sapiens
Description: SANGER: Inhibition of human BV-173 cell growth in a cell viability assay.

[15] = test system: MIA PaCa-2; test: cells; type: functional, cell-based; conditions: Homo sapiens;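 also: growth inhibition of MIA PaCa-2 cells, read out with a cell viability assay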
Description: SANGER: Inhibition of human MIA-PaCa-2 cell growth in a cell viability assay.

[16] = test system: RS4-11; test: cells; type: functional, cell-based; conditions: Homo sapiens;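 also: growth inhibition of RS4-11 cells, read out by a cell viability assay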
Description: SANGER: Inhibition of human RS4-11 cell growth in a cell viability assay.

[17] = test system: NKM-1; test: cells; type: functional, cell-based; conditions: Homo sapiens;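 also: growth inhibition of NKM-1 cells, read out with a cell viability assay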
Description: SANGER: Inhibition of human NKM-1 cell growth in a cell viability assay.

[18] = test system: A4-Fuk; test: cells; type: functional, cell-based; conditions: Homo sapiens;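 also: growth inhibition of A4-Fuk cells, read out by a cell viability assay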
Description: SANGER: Inhibition of human A4-Fuk cell growth in a cell viability assay.

[19] = test system: GB-1; test: cells; type: functional, cell-based; conditions: Homo sapiens;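 also: growth of GB-1 cells judged by a viability assay, IC50 marks the concentration inhibiting growth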
Description: SANGER: Inhibition of human GB-1 cell growth in a cell viability assay.

[20] = test system: JAR; test: cells; type: functional, cell-based; conditions: Homo sapiens;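 also: growth inhibition of human JAR cells determined with a cell viability assay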
Description: SANGER: Inhibition of human JAR cell growth in a cell viability assay.

[21] = test system: TGBC24TKB; test: cells; type: functional, cell-based; conditions: Homo sapiens;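 also: growth inhibition of human TGBC24TKB cells, read out with a cell viability assay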
Description: SANGER: Inhibition of human TGBC24TKB cell growth in a cell viability assay.

[22] = test system: LU-165; test: cells; type: functional, cell-based; conditions: Homo sapiens
Description: SANGER: Inhibition of human LU-165 cell growth in a cell viability assay.

[23] = test system: A-431; test: cells; type: functional, cell-based; conditions: Homo sapiens;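 also: growth inhibition of A-431 cells, determined with a cell viability read-out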
Description: SANGER: Inhibition of human A431 cell growth in a cell viability assay.

[24] = test system: IST-SL1; test: cells; type: functional, cell-based; conditions: Homo sapiens;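 also: growth inhibition of human IST-SL1 cells, read out with a cell viability assay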
Description: SANGER: Inhibition of human IST-SL1 cell growth in a cell viability assay.

[25] = test system: HL-60; test: cells; type: functional, cell-based; conditions: Homo sapiens;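 also: growth inhibition of human HL-60 cells, read out with a cell viability assay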
Description: SANGER: Inhibition of human HL-60 cell growth in a cell viability assay.

[26] = test system: U-266; test: cells; type: functional, cell-based; conditions: Homo sapiens
Description: SANGER: Inhibition of human U-266 cell growth in a cell viability assay.

[27] = test system: MOLT-16; test: cells; type: functional, cell-based; conditions: Homo sapiens;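 also: growth inhibition of human MOLT-16 cells, read out with a cell viability assay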
Description: SANGER: Inhibition of human MOLT-16 cell growth in a cell viability assay.

[28] = test system: NCI-H526; test: cells; type: functional, cell-based; conditions: Homo sapiens;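 also: growth inhibition of the human NCI-H526 cell line, measured by a cell viability assay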
Description: SANGER: Inhibition of human NCI-H526 cell growth in a cell viability assay.

[29] = test system: EW-18; test: cells; type: functional, cell-based; conditions: Homo sapiens;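 also: growth inhibition of EW-18 cells, read out by a cell viability assay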
Description: SANGER: Inhibition of human EW-18 cell growth in a cell viability assay.

[30] = test system: COLO-829; test: cells; type: functional, cell-based; conditions: Homo sapiens
Description: SANGER: Inhibition of human COLO-829 cell growth in a cell viability assay.

[31] = test system: GI-ME-N; test: cells; type: functional, cell-based; conditions: Homo sapiens;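 also: growth inhibition of human GI-ME-N cells, read out with a cell viability assay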
Description: SANGER: Inhibition of human GI-ME-N cell growth in a cell viability assay.

[32] = test system: KM12; test: cells; type: functional, cell-based; conditions: Homo sapiens;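 also: KM12 cell growth inhibition, read out with a cell viability assay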
Description: SANGER: Inhibition of human KM12 cell growth in a cell viability assay.

[33] = test system: NCI-H2126; test: cells; type: functional, cell-based; conditions: Homo sapiens;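 also: growth inhibition of the cancer cell line, determined with a cell viability readout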
Description: SANGER: Inhibition of human NCI-H2126 cell growth in a cell viability assay.

[34] = test system: NCI-H1651; test: cells; type: functional, cell-based; conditions: Homo sapiens;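 also: Read-out is a cell viability assay, with IC50 expressing inhibition of NCI-H1651 cell growth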
Description: SANGER: Inhibition of human NCI-H1651 cell growth in a cell viability assay.

[35] = test system: LU-134-A; test: cells; type: functional, cell-based; conditions: Homo sapiens
Description: SANGER: Inhibition of human LU-134-A cell growth in a cell viability assay.

[36] = test system: ACN; test: cells; type: functional, cell-based; conditions: Homo sapiens;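 also: growth inhibition of the human ACN cell line, read out via cell viability testing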
Description: SANGER: Inhibition of human ACN cell growth in a cell viability assay.

[37] = test system: NB69; test: cells; type: functional, cell-based; conditions: Homo sapiens;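 also: growth inhibition of NB69 cells, determined by a cell viability assay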
Description: SANGER: Inhibition of human NB69 cell growth in a cell viability assay.

[38] = test system: L-363; test: cells; type: functional, cell-based; conditions: Homo sapiens
Description: SANGER: Inhibition of human L-363 cell growth in a cell viability assay.

[39] = test system: LB831-BLC; test: cells; type: functional, cell-based; conditions: Homo sapiens;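 also: growth inhibition of LB831-BLC cells, read out with a cell viability assay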
Description: SANGER: Inhibition of human LB831-BLC cell growth in a cell viability assay.

[40] = test system: NCI-H1299; test: cells; type: functional, cell-based; conditions: Homo sapiens;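 also: growth inhibition of human NCI-H1299 cells, read out by a cell viability assay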
Description: SANGER: Inhibition of human NCI-H1299 cell growth in a cell viability assay.

[41] = test system: MFH-ino; test: cells; type: functional, cell-based; conditions: Homo sapiens;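 also: growth inhibition of human MFH-ino cells, read out by a cell viability assay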
Description: SANGER: Inhibition of human MFH-ino cell growth in a cell viability assay.

[42] = test system: BCPAP; test: cells; type: functional, cell-based; conditions: Homo sapiens;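 also: growth inhibition of BCPAP cells, read out in a cell viability assay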
Description: SANGER: Inhibition of human BCPAP cell growth in a cell viability assay.

[43] = test system: MKN-45; test: cells; type: functional, cell-based; conditions: Homo sapiens;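 also: growth inhibition of human MKN-45 cells, measured with a cell viability assay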
Description: SANGER: Inhibition of human MKN45 cell growth in a cell viability assay.

[44] = test system: EM-2; test: cells; type: functional, cell-based; conditions: Homo sapiens;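 also: growth inhibition of EM-2 cells, read out with a cell viability assay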
Description: SANGER: Inhibition of human EM-2 cell growth in a cell viability assay.

[45] = test system: HH; test: cells; type: functional, cell-based; conditions: Homo sapiens
Description: SANGER: Inhibition of human HH cell growth in a cell viability assay.

[46] = test system: DJM-1; test: cells; type: functional, cell-based; conditions: Homo sapiens;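 also: growth inhibition of human DJM-1 cells, read out by a cell viability assay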
Description: SANGER: Inhibition of human DJM-1 cell growth in a cell viability assay.

[47] = test system: KY821; test: cells; type: functional, cell-based; conditions: Homo sapiens;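 also: growth inhibition of human KY821 cells, read out by a cell viability assay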
Description: SANGER: Inhibition of human KY821 cell growth in a cell viability assay.

[48] = test system: LS-411N; test: cells; type: functional, cell-based; conditions: Homo sapiens
[49] = test system: A204; test: cells; type: functional, cell-based; conditions: Homo sapiens;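 also: growth inhibition of human A204 cells, read out with a cell viability assay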
Description: SANGER: Inhibition of human A204 cell growth in a cell viability assay.

[50] = test system: CW-2; test: cells; type: functional, cell-based; conditions: Homo sapiens;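 also: growth inhibition of CW-2 cells, read out by a cell viability assay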
Description: SANGER: Inhibition of human CW-2 cell growth in a cell viability assay.

[51] = test system: NCI-H720; test: cells; type: functional, cell-based; conditions: Homo sapiens;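 also: growth inhibition of human NCI-H720 cells determined by a cell viability assay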
Description: SANGER: Inhibition of human NCI-H720 cell growth in a cell viability assay.

[52] = test system: SK-LMS-1; test: cells; type: functional, cell-based; conditions: Homo sapiens;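 also: growth inhibition of human SK-LMS-1 cells, read out with a cell viability assay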
Description: SANGER: Inhibition of human SK-LMS-1 cell growth in a cell viability assay.

[53] = test system: P30-OHK; test: cells; type: functional, cell-based; conditions: Homo sapiens;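 also: growth inhibition of the P30-OHK cell line, read out with a cell viability assay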
Description: SANGER: Inhibition of human P30-OHK cell growth in a cell viability assay.

[54] = test system: CP66-MEL; test: cells; type: functional, cell-based; conditions: Homo sapiens;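 also: growth inhibition of CP66-MEL cells determined in a cell viability assay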
Description: SANGER: Inhibition of human CP66-MEL cell growth in a cell viability assay.

[55] = test system: RXF 393; test: cells; type: functional, cell-based; conditions: Homo sapiens;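 also: growth inhibition of human RXF 393 cells, read out with a cell viability assay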
Description: SANGER: Inhibition of human RXF393 cell growth in a cell viability assay.

[56] = test system: MEG-01; test: cells; type: functional, cell-based; conditions: Homo sapiens;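 also: growth inhibition of MEG-01 cells, read out by a cell viability assay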
Description: SANGER: Inhibition of human MEG-01 cell growth in a cell viability assay.

[57] = test system: IGROV-1; test: cells; type: functional, cell-based; conditions: Homo sapiens;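 also: reduction of IGROV-1 cell growth, read out with a viability assay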
Description: SANGER: Inhibition of human IGROV-1 cell growth in a cell viability assay.

[58] = test system: DEL; test: cells; type: functional, cell-based; conditions: Homo sapiens;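 also: growth inhibition of the human DEL cell line, read out with a cell viability assay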
Description: SANGER: Inhibition of human DEL cell growth in a cell viability assay.

[59] = test system: IM-9; test: SANGER: Inhibition of human IM-9 cell growth in a cell viability assay.; type: functional, cell-based
[60] = test system: MV4-11; test: cells; type: functional, cell-based, MV-4-11; conditions: Homo sapiens
Description: SANGER: Inhibition of human MV-4-11 cell growth in a cell viability assay.

[61] = test system: SW982; test: cells; type: functional, cell-based; conditions: Homo sapiens
Description: SANGER: Inhibition of human SW982 cell growth in a cell viability assay.

[62] = test system: MZ2-MEL; test: cells; type: functional, cell-based; conditions: Homo sapiens
Description: SANGER: Inhibition of human MZ2-MEL cell growth in a cell viability assay.

[63] = test system: Becker; test: cells; type: functional, cell-based; conditions: Homo sapiens
Description: SANGER: Inhibition of human Becker cell growth in a cell viability assay.

[64] = test system: LS-123; test: cells; type: functional, cell-based; conditions: Homo sapiens
Description: SANGER: Inhibition of human LS-123 cell growth in a cell viability assay.

[65] = test system: BB49-HNC; test: cells; type: functional, cell-based; conditions: Homo sapiens
Description: SANGER: Inhibition of human BB49-HNC cell growth in a cell viability assay.

Fc1cc(-c2cc[nH]/c(=N/c3ccc(-n4cnc(N5CCOCC5)n4)cc3)n2)cc(N2CCOCC2)c1
pIC50 [1]: 6.65
pIC50 [2]: 6.03
pIC50 [3]: 5.86
pIC50 [4]: 6.17
pIC50 [5]: 6.29
pIC50 [6]: 6.65
pIC50 [7]: < 5.29
pIC50 [8]: 5.87
pIC50 [9]: 6.15
pIC50 [10]: 5.31
pIC50 [11]: 6.13
pIC50 [12]: 6.52
pIC50 [13]: 6.69
pIC50 [14]: 6.13
pIC50 [15]: 5.85
pIC50 [16]: 6.55
pIC50 [17]: 6.37
pIC50 [18]: 6.01
pIC50 [19]: 6.48
pIC50 [20]: 5.48
pIC50 [21]: 5.98
pIC50 [22]: 6.08
pIC50 [23]: 6.60
pIC50 [24]: 6.11
pIC50 [25]: 6.26
pIC50 [26]: 6.05
pIC50 [27]: 6.13
pIC50 [28]: 6.02
pIC50 [29]: 6.07
pIC50 [30]: 6.28
pIC50 [31]: 5.84
pIC50 [32]: 6.67
pIC50 [33]: 6.27
pIC50 [34]: 5.97
pIC50 [35]: 6.23
pIC50 [36]: 7.10
pIC50 [37]: 5.84
pIC50 [38]: 6.35
pIC50 [39]: 6.38
pIC50 [40]: 6.44
pIC50 [41]: 5.98
pIC50 [42]: 6.03
pIC50 [43]: 6.00
pIC50 [44]: 5.94
pIC50 [45]: < 5.29
pIC50 [46]: < 5.29
pIC50 [47]: < 5.29
pIC50 [48]: 6.70
pIC50 [49]: 6.78
pIC50 [50]: < 5.29
pIC50 [51]: < 5.29
pIC50 [52]: 6.34
pIC50 [53]: 6.52
pIC50 [54]: 6.09
pIC50 [55]: 7.17
pIC50 [56]: 6.17
pIC50 [57]: 7.01
pIC50 [58]: 6.54
pIC50 [59]: 5.48
pIC50 [60]: 6.26
pIC50 [61]: 6.92
pIC50 [62]: 6.39
pIC50 [63]: 5.97
pIC50 [64]: 5.90
pIC50 [65]: < 5.29

Cc1[nH]c(/C=C2\C(=O)Nc3ccc(S(=O)(=O)Cc4c(Cl)cccc4Cl)cc32)c(C)c1C(=O)N1CCC[C@@H]1CN1CCCC1 [PHA-665752]
pIC50 [2]: < 5.70
pIC50 [3]: < 5.70
pIC50 [4]: 6.09
pIC50 [5]: < 5.70
pIC50 [7]: < 5.70
pIC50 [8]: < 5.70
pIC50 [9]: < 5.70
pIC50 [10]: < 5.70
pIC50 [11]: 6.80
pIC50 [12]: < 5.70
pIC50 [13]: < 5.70
pIC50 [14]: < 5.70
pIC50 [16]: < 5.70
pIC50 [17]: < 5.70
pIC50 [18]: < 5.70
pIC50 [19]: < 5.70
pIC50 [20]: < 5.70
pIC50 [21]: < 5.70
pIC50 [22]: < 5.70
pIC50 [24]: < 5.70
pIC50 [25]: < 5.70
pIC50 [26]: < 5.70
pIC50 [27]: < 5.70
pIC50 [28]: < 5.70
pIC50 [29]: < 5.70
pIC50 [30]: < 5.70
pIC50 [31]: < 5.70
pIC50 [32]: < 5.70
pIC50 [33]: < 5.70
pIC50 [35]: < 5.70
pIC50 [36]: < 5.70
pIC50 [37]: < 5.70
pIC50 [38]: < 5.70
pIC50 [39]: < 5.70
pIC50 [40]: < 5.70
pIC50 [41]: < 5.70
pIC50 [44]: < 5.70
pIC50 [45]: < 5.70
pIC50 [46]: < 5.70
pIC50 [47]: < 5.70
pIC50 [48]: < 5.70
pIC50 [50]: < 5.70
pIC50 [51]: < 5.70
pIC50 [52]: 6.05
pIC50 [53]: < 5.70
pIC50 [54]: < 5.70
pIC50 [55]: < 5.70
pIC50 [56]: < 5.70
pIC50 [58]: < 5.70
pIC50 [59]: < 5.70
pIC50 [60]: 5.89
pIC50 [61]: < 5.70
pIC50 [62]: < 5.70
pIC50 [63]: < 5.70
pIC50 [64]: < 5.70
pIC50 [65]: < 5.70
